Source: ChEMBL document CHEMBL1909046, “DrugMatrix in vitro pharmacology data”

Key:
[1] = DRUGMATRIX: Calcium Channel Type L, Benzothiazepine radioligand binding (ligand: [3H] Diltiazem); type: cell membranes, Rattus norvegicus, Wistar, Brain, Membrane; conditions: Not Active = under 50% inhibition at 10 µM
[2] = DRUGMATRIX: Calcium Channel Type L, Dihydropyridine radioligand binding (ligand: [3H] Nitrendipine); type: cell membranes, Rattus norvegicus, Wistar, Cerebral cortex, Membrane; conditions: Not Active = under 50% inhibition at 10 µM
[3] = DRUGMATRIX: Glutamate, AMPA radioligand binding (ligand: [3H] AMPA); type: cell membranes, Rattus norvegicus, Wistar, Cerebral cortex, Membrane; conditions: Not Active = under 50% inhibition at 10 µM
[4] = target: Melanocortin receptor 3 (Homo sapiens, UniProt P41968); type: cell membranes, HEK293, Membrane; conditions: hek293; note: in other assays of this panel Not Active means under 50% inhibition at 10 µM
[5] = DRUGMATRIX: Nicotinic Acetylcholine radioligand binding (ligand: [125I] Epibatidine); type: cell membranes, Membrane; conditions: imr-32, Not Active = under 50% inhibition at 10 µM
[6] = target: T1, Nitric oxide synthase, inducible (Mus musculus, UniProt P29477); parameters: species or system Escherichia coli;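 note: inhibition of iNOS enzyme activity measured with L-arginine as substrate; in other assays of this panel Not Active means under 50% inhibition at 10 µM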
T1 sequence (P29477 whole entry): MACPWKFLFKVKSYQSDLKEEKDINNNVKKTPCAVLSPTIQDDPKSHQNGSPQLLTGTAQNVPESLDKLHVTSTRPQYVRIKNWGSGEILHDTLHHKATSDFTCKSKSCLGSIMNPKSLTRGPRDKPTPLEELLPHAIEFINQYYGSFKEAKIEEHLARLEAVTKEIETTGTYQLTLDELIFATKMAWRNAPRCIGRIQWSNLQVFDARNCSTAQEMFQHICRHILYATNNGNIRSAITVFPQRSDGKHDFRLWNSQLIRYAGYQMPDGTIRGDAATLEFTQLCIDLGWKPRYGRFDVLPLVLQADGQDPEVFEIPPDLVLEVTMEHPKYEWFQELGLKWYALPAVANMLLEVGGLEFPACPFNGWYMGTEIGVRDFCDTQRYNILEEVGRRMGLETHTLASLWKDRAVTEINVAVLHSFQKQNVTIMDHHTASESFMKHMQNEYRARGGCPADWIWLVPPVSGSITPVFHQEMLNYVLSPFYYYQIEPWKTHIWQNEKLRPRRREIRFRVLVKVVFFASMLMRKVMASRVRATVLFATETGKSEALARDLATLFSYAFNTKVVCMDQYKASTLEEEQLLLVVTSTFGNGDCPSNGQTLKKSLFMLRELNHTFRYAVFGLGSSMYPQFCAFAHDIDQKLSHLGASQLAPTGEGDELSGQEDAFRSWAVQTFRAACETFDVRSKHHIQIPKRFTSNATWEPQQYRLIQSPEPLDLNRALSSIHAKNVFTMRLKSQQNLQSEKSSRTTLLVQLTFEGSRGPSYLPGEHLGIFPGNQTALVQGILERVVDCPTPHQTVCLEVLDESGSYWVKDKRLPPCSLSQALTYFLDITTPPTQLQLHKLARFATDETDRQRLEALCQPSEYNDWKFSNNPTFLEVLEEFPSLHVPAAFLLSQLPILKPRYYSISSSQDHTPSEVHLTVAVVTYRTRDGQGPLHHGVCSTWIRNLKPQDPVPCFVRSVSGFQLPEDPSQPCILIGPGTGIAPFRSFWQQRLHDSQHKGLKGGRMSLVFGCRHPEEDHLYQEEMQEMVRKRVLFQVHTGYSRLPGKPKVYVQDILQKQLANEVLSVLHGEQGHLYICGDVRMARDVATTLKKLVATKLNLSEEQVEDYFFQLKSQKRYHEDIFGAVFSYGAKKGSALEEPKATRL

[7] = target: Adenosine receptor A2a (Homo sapiens, UniProt P29274); assay: DRUGMATRIX: Adenosine A2A radioligand binding (ligand: […]); type: cell membranes, HEK293, Membrane; conditions: hek293; Not Active = under 50% inhibition at 10 µM
Adenosine receptor A2a, sequence (P29274 whole entry): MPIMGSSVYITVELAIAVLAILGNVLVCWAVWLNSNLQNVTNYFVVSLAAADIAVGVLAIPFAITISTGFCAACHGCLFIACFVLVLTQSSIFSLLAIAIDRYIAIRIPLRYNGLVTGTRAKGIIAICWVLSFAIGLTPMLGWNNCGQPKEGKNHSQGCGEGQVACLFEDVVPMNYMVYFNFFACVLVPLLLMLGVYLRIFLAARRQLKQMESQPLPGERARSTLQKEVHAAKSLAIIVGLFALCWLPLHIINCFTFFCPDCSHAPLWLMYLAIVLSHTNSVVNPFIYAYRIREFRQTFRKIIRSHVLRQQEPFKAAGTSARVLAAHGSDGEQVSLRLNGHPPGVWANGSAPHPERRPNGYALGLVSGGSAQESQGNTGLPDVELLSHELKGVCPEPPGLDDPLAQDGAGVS

Melanocortin receptor 3, sequence (P41968 whole entry): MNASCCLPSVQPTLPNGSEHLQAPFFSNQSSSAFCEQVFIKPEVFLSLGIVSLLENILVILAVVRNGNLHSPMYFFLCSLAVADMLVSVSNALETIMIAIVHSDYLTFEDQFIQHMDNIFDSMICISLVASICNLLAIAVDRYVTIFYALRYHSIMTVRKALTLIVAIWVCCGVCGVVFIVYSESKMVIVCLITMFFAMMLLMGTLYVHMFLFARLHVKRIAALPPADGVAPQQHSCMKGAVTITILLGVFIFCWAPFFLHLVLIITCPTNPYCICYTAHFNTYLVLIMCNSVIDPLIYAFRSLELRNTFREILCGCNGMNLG

Row | Compound | IC50 [1] | Ki [1] | IC50 [2] | Ki [2] | IC50 [3] | Ki [3] | IC50 [4] | IC50 [5] | Ki [5] | IC50 [6] | IC50 [7] | Ki [4] | Ki [6] | Ki [7] | IC50 ([1]; read-out: IC50) [µM] | Ki ([1]; read-out: Ki) [µM] | IC50 ([5]; read-out: IC50) [µM] | Ki ([5]; read-out: Ki) [µM]
1 | COc1ccc(Cl)cc1C(=O)NCCc1ccc(S(=O)(=O)NC(=O)NC2CCCCC2)cc1 [GLYBURIDE] | Not Active | Not Active | Not Active | Not Active | Not Active | Not Active | Not Active | Not Active | Not Active | Not Active | Not Active |  |  |  |  |  |  | 
2 | CHROMIC CHLORIDE | Not Active | Not Active | Not Active | Not Active | Not Active | Not Active | Not Active | Not Active | Not Active | Not Active | Not Active | Not Active | Not Active | Not Active |  |  |  | 
3 | CCN1C[C@]2(COC)[C@H](O)C[C@H](OC)[C@@]34[C@@H]5C[C@@]6(O)[C@H](OC(=O)c7ccccc7)[C@@H]5[C@@](OC(C)=O)([C@@H]([C@H](OC)[C@H]23)[C@@H]14)[C@@H](O)[C@@H]6OC [ACONITINE] | Not Active | Not Active | Not Active | Not Active | Not Active | Not Active | Not Active | Not Active | Not Active | Not Active | Not Active |  |  |  |  |  |  | 
4 | O=C(O)CCc1nc(-c2ccccc2)c(-c2ccccc2)o1 [OXAPROZIN] | Not Active | Not Active | Not Active | Not Active | Not Active | Not Active | Not Active | Not Active | Not Active | Not Active | Not Active |  |  |  |  |  |  | 
5 | Cc1ccnc2c1NC(=O)c1cccnc1N2C1CC1 [NEVIRAPINE] | Not Active | Not Active | Not Active | Not Active | Not Active | Not Active | Not Active | Not Active | Not Active | Not Active | Not Active |  |  |  |  |  |  | 
6 | Clc1cc(Cl)c(OCC#CI)cc1Cl [HALOPROGIN] | Not Active | Not Active | Not Active | Not Active | Not Active | Not Active | Not Active | Not Active | Not Active | Not Active | Not Active |  |  |  |  |  |  | 
7 | COc1ccccc1OCCNCC(O)COc1cccc2[nH]c3ccccc3c12 (configuration not stated) [CARVEDILOL] |  |  | Not Active | Not Active | Not Active | Not Active | Not Active | Not Active | Not Active | Not Active | Not Active |  |  |  | 0.621 | 0.552 |  | 
8 | CCN1CCN(c2cc3c(cc2F)c(=O)c(C(=O)O)cn3C2CC2)CC1 [ENROFLOXACIN] | Not Active | Not Active | Not Active | Not Active | Not Active | Not Active | Not Active | Not Active | Not Active | Not Active | Not Active |  |  |  |  |  |  | 
9 | POVIDONE | Not Active | Not Active | Not Active | Not Active | Not Active | Not Active | Not Active | Not Active | Not Active | Not Active | Not Active | Not Active | Not Active | Not Active |  |  |  | 
10 | C=C(Cl)Cl [1,1-DICHLOROETHENE] | Not Active | Not Active | Not Active | Not Active | Not Active | Not Active | Not Active | Not Active | Not Active | Not Active | Not Active |  |  |  |  |  |  | 
11 | CC(=O)[C@]1(O)Cc2c(O)c3c(c(O)c2[C@@H](O[C@H]2C[C@H](N)[C@H](O)[C@H](C)O2)C1)C(=O)c1ccccc1C3=O [IDARUBICIN] | Not Active | Not Active | Not Active | Not Active | Not Active | Not Active | Not Active | Not Active | Not Active | Not Active | Not Active |  |  |  |  |  |  | 
12 | NC(=O)CN1CCCC1=O | Not Active | Not Active | Not Active | Not Active | Not Active | Not Active | Not Active | Not Active | Not Active | Not Active | Not Active |  |  |  |  |  |  | 
13 | CO[C@H]1O[C@@H]2O[C@@]3(C)CC[C@H]4[C@H](C)CC[C@@H]([C@H]1C)[C@@]24OO3 | Not Active | Not Active | Not Active | Not Active | Not Active | Not Active | Not Active | Not Active | Not Active | Not Active | Not Active |  |  |  |  |  |  | 
14 | CC12CCC(CC1)C(C)(C)O2 [EUCALYPTOL] | Not Active | Not Active | Not Active | Not Active | Not Active | Not Active | Not Active | Not Active | Not Active | Not Active | Not Active |  |  |  |  |  |  | 
15 | C[N+](C)(C)CCOC(N)=O.[Cl-] [CARBACHOL] | Not Active | Not Active | Not Active | Not Active | Not Active | Not Active | Not Active |  |  | Not Active | Not Active |  |  |  |  |  | 1 | 0.334
16 | NS(=O)(=O)c1cc(C(=O)O)c(NCc2ccco2)cc1Cl [FUROSEMIDE] | Not Active | Not Active | Not Active | Not Active | Not Active | Not Active | Not Active | Not Active | Not Active | Not Active | Not Active |  |  |  |  |  |  | 
17 | CC(C)NCC(O)COc1ccc(CC(N)=O)cc1 (configuration not stated) [ATENOLOL] | Not Active | Not Active | Not Active | Not Active | Not Active | Not Active | Not Active | Not Active | Not Active | Not Active | Not Active |  |  |  |  |  |  | 
18 | Oc1ncnc2[nH]ncc12 [ALLOPURINOL] | Not Active | Not Active | Not Active | Not Active | Not Active | Not Active | Not Active | Not Active | Not Active | Not Active | Not Active |  |  |  |  |  |  | 
19 | NCC(CC(=O)O)c1ccc(Cl)cc1 (configuration not stated) [BACLOFEN] | Not Active | Not Active | Not Active | Not Active | Not Active | Not Active | Not Active | Not Active | Not Active | Not Active | Not Active |  |  |  |  |  |  | 
20 | O=C1CN(/N=C/c2ccc([N+](=O)[O-])o2)C(=O)N1 [NITROFURANTOIN] | Not Active | Not Active | Not Active | Not Active | Not Active | Not Active | Not Active | Not Active | Not Active | Not Active | Not Active |  |  |  |  |  |  | 
21 | CC12CCC(CC1=O)C2(C)C (configuration not stated) [CAMPHOR] | Not Active | Not Active | Not Active | Not Active | Not Active | Not Active | Not Active | Not Active | Not Active | Not Active | Not Active |  |  |  |  |  |  | 
